Laboratory results reported in patent US4775674A, “Imidazoquinolinylether derivatives useful as phosphodiesterase and blood aggregation inhibitors” (Bristol-Myers Company, priority 1986, dated 1988).
Values after ≈ are worked out from the molar mass of the structure shown. Where two headings read alike, the source gives them in different places.

Assays:
[1] = system: collagen-induced platelet aggregation; test: In vitro inhibition of platelet aggregation, collagen-induced (rabbit platelet rich plasma); assay type: cell-based; conditions: Oryctolagus cuniculus, collagen suspension 0.05 ml, read-out: Platelet Inhibition In Vitro - Rabbit PRP EC50 vs. collagen
Procedure: (§1) The aggregometer method of Born (1), as modified by Mustard, et al. (2) was used to assess the in vitro activity of the various compounds as to inhibition of adenosine diphosphate (ADP) and collagen-induced platelet aggregation. Platelet rich plasma (PRP) was separated by centrifugation from citrated (3.8 percent) rabbit blood. […] The various compounds tested were dissolved in dimethylsulfoxide (DMSO) so that 5 mcl added to the platelet rich plasma would yield the desired test concentration. Vehicle control trials were done and compared with aggregation induced in platelet rich plasma containing various concentrations of the test compounds. Dose response curves were obtained and Effective Concentration (EC50) values calculated.

[2] = system: ferrets (right ventricular contractile force, blood pressure); test: In vivo inotropic activity in ferrets; parameters: species or system ferret; conditions: Mustela putorius, 1 h, intraduodenal
Procedure: This test is carried out in ferrets as follows. Fasted anesthetized ferrets are instrumented to study hemodynamic parameters as well as right ventricular contractile force (RVCF) using a Walton-Brodie open strain guage arch. Drugs are administered intraduodenally as solutions in DMSO (1 mL or less) and effects on myocardial contractile force and other parameters are monitored for 60 minutes after dosing. Changes in contractile force in response to drug treatment are expressed in terms of percent change from predose control.

[3] = system: adenosine diphosphate (ADP)-induced platelet aggregation; test: In vitro inhibition of platelet aggregation, ADP-induced (rabbit platelet rich plasma); assay type: cell-based; conditions: Oryctolagus cuniculus, ADP 0.5 mcg/ml, read-out: Platelet Inhibition In Vitro - Rabbit PRP EC50 vs. ADP
Procedure: as §1

[4] = system: platelet aggregation (Ex Vivo vs. ADP); test: Inhibition of platelet aggregation following oral administration (Ex vivo); assay type: in vivo; conditions: Rattus norvegicus, rats, oral by gavage, 2 hours after dosing
Procedure: This test is sometimes referred to in the art as an Ex vivo method and was initially described by Fleming, et al., Arch. Int. Pharmacodyn. Ther., 199, 164 (1972). Briefly, the assay is essentially carried out as follows.
Aggregometry is performed in vitro as previously described on platelet rich plasma samples obtained from rats dosed with either test compounds or the vehicle. In all cases, activity is determined 2 hours after the drug is administered orally at various doses by gavage as a suspension in […] plus a few drops of Tween 20.

[5] = biological target: T1, cAMP phosphodiesterase (human platelets) (Homo sapiens, UniProt Q14432); test: Inhibition of cyclic AMP phosphodiesterase; assay type: biochemical; conditions: PDE from human platelets
T1 construct: enzynme obtained from human platelets; from tissue; host or cells: human platelets
T1 sequence (Q14432 whole entry): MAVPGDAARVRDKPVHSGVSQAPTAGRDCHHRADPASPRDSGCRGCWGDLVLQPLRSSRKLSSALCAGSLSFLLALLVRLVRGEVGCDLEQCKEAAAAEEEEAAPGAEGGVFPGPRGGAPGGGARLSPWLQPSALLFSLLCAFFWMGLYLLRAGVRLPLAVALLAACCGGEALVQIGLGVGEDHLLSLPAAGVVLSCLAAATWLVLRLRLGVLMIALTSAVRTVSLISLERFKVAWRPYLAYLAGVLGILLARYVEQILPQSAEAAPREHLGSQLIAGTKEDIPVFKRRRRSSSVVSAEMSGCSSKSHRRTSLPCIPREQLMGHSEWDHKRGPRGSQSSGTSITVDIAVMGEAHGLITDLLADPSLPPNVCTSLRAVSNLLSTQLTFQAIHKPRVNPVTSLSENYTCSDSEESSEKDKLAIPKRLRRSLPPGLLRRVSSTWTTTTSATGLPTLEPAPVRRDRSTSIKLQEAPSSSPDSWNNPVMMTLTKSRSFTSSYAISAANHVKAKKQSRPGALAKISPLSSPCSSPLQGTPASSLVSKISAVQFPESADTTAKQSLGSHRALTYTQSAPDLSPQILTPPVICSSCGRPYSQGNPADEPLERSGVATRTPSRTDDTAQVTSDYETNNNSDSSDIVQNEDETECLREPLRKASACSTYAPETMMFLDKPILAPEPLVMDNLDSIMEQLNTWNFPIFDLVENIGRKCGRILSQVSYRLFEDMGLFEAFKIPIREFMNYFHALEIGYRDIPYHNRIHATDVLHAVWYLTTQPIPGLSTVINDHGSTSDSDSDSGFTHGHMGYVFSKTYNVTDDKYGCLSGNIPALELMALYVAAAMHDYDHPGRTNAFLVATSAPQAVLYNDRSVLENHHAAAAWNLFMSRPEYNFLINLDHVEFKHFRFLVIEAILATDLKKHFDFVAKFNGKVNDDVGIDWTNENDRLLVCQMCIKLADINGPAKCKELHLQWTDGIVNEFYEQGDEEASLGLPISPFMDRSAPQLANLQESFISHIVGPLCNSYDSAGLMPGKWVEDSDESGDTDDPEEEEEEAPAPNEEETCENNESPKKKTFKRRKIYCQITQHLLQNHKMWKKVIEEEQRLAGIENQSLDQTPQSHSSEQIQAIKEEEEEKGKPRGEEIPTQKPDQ
Procedure: This assay is carried out essentially as described by Thompson, et al., Methods in Enzymology, 38, 205-212 (1974). Briefly, tritium labeled cyclic adenosine monophosphate (cAMP) is incubated with a phosphodiesterase (PDE) enzynme obtained from human platelets which converts a portion of the cAMP to 5'AMP in culture tubes. This reaction is terminated by submerging the tubes in a boiling water bath after which they are placed on ice and an aliquot of snake venom is added to each tube. This, during a second incubation, converts the 5'AMP to adenosine. Ion exchange resin is added to bind the remaining cyclic AMP. The tubes are centrifuged to sediment the resin and a portion of the clear supernatent (which contains radioactive adenosine) is counted in a liquid scintillation counter. The cAMP phosphodiesterase inhibition activity of a test agent is determined by pre-incubating the PDE enzyme preparation with the test agent.

[6] = anesthetized ferret, 3 mg/kg, 60 minutes, vs predose control, read-out: Maximum Percentage Change Right Ventricular Contractile Force (RVCF)
[7] = anesthetized ferret, 3 mg/kg, 60 minutes, read-out: Maximum Percentage Change Blood Pressure

SMILES	EC50 [1]	EC50 [3]	change in vivo at 3 mg/kg [2, 6]	change in vivo at 3 mg/kg [2, 7]	IC50 [5]	further results
CN(C(=O)CCCOc1ccc2nc3[nH]c(=O)[nH]c3cc2c1)C1CCCCCC1 [Example 22, N-Cycloheptyl-N-methyl-4-[(2,3-dihydro-2-oxo-1H-imidazo[4,5-b]quinolin-7-yl)oxy]butanamide]	0.002 µg/mL (≈ 0.00504 µM)	0.007 µg/mL (≈ 0.0177 µM)	–	–	–	change in vivo at 0.3 mg/kg ([2]; anesthetized ferret, 60 minutes, vs predose control, read-out: Maximum Percentage Change Right Ventricular Contractile Force (RVCF)): 29 ± 5%; change in vivo at 0.3 mg/kg ([2]; anesthetized ferret, 60 minutes, read-out: Maximum Percentage Change Blood Pressure): -26 ± 4%; ED50 [4]: 6.2 mg/kg
Cn1c(=O)[nH]c2nc3ccc(OCCCC(=O)N4CCCCC4)cc3cc21 [Example 25, 1-[4-[(2,3-Dihydro-1-methyl-2-oxo-1H-imidazo[4,5-b]quinolin-7-yl)oxy]-1-oxobutyl]piperidine]	0.8 µg/mL (≈ 2.17 µM)	4 µg/mL (≈ 10.9 µM)	–	–	–	–
O=C(CCCOc1ccc2nc3[nH]c(=O)[nH]c3cc2c1)N1CCOCC1 [Example 15]	0.007 µg/mL (≈ 0.0196 µM)	–	2%	-5%	–	–
O=C(CCCOc1ccc2nc3[nH]c(=O)[nH]c3cc2c1)NC1CCCCC1 [Example 18, N-Cyclohexyl-4-[(2,3-dihydro-2-oxo-1H-imidazo[4,5-b]quinolin-7-yl)oxy]butanamide]	0.0025 µg/mL (≈ 0.00679 µM)	0.015 µg/mL (≈ 0.0407 µM)	5%	-8%	–	–
CN(C(=O)CCCOc1ccc2nc3nc(O)n(C)c3cc2c1)C1CCCCCC1 [Example 23, N-Cycloheptyl-4-[(2,3-dihydro-1-methyl-2-oxo-1H-imidazo[4,5-b]quinolin-7-yl)oxy]-N-methylbutanamide]	0.005 µg/mL (≈ 0.0122 µM)	0.03 µg/mL (≈ 0.0731 µM)	24%	-16%	30000 nM	–
O=C(O)CCCOc1ccc2nc3[nH]c(=O)[nH]c3cc2c1 [Example 4, 4-[(2,3-Dihydro-2-oxo-1H-imidazo[4,5-b]quinolin-7-yl)oxy]butanoic Acid]	–	–	3 ± 5%	-3 ± 2%	–	ED50 [4]: 3.4 mg/kg
Cc1[nH]c(=O)c(C#N)cc1-c1ccncc1 [milrinone, reference compound]	–	–	–	–	–	change in vivo at 3 mg/kg ([2]; read-out: Maximum Percentage Change Right Ventricular Contractile Force (RVCF)): 52%
CC(C)(C)N1CC(COc2ccc3nc4[nH]c(=O)[nH]c4cc3c2)OC1=O (stereo not shown) [Example 42, 7-[[3-(1,1-Dimethylethyl)-2-oxooxazolidin-5-yl]methoxy]-1H-imidazo[4,5-b]quinolin-2(3H)-one]	0.4 µg/mL (≈ 1.12 µM)	6 µg/mL (≈ 16.8 µM)	–	–	70 nM	–
COC(=O)CCCCOc1ccc2nc3[nH]c(=O)[nH]c3cc2c1 [Example 13, Methyl 5-[(2,3-Dihydro-2-oxo-1H-imidazo[4,5-b]quinolin-7-yl)oxy]pentanoate]	–	0.3 µg/mL (≈ 0.951 µM)	–	–	–	–
Cn1c(=O)[nH]c2nc3ccc(OCCCC(=O)NC4CCCCC4)cc3cc21 [Example 19, N-Cyclohexyl-4-[(2,3-dihydro-1-methyl-2-oxo 1H-imidazo[4,5-b]quinolin-7-yl)oxy]butanamide]	0.009 µg/mL (≈ 0.0235 µM)	0.07 µg/mL (≈ 0.183 µM)	–	–	700 nM	ED50 [4]: 8.3 mg/kg
CC(C)N1CC(COc2ccc3nc4[nH]c(=O)[nH]c4cc3c2)OC1=O (stereo not shown) [Example 41, 1,3-Dihydro-7-[[3-(1-methylethyl)-2-oxo-5-oxazolidinyl]methoxy]-2H-imidazo[4,5-b]quinolin-2-one]	7 µg/mL (≈ 20.4 µM)	3 µg/mL (≈ 8.76 µM)	–	–	60 nM	–
CCOC(=O)COc1ccc2nc3[nH]c(=O)[nH]c3cc2c1 [Example 12, Ethyl [(2,3-Dihydro-2-oxo-1H-imidazo[4,5-b]quinolin-7-yl)oxy]acetate]	2.5 µg/mL (≈ 8.7 µM)	8 µg/mL (≈ 27.8 µM)	–	–	–	–
CN(C(=O)CCCCOc1ccc2nc3nc(O)n(C)c3cc2c1)C1CCCCC1 [Example 27, N-Cyclohexyl-5-[(2,3-dihydro-1-methyl-2-oxo-1H-imidazo[4,5-b]quinolin-7-yl)oxy]N-methylpentanamide]	–	0.06 µg/mL (≈ 0.146 µM)	35%	-24%	500 nM	–
Cn1c(O)nc2nc3ccc(OCCCCC(=O)O)cc3cc21 [Example 9, 5-[(2,3-Dihydro-1-methyl-2-oxo-1H-imidazo[4,5-b]quinolin-7-yl)oxy]pentanoicAcid]	> 32 µg/mL	> 32 µg/mL	–	–	800 nM	–
CC(C)NCC(O)COc1ccc2nc3[nH]c(=O)[nH]c3cc2c1 (stereo not shown) [Example 43, 1,3-Dihydro-7-[2-hydroxy-3-[(1-methylethyl)amino]propoxy]-2H-imidazo[4,5-b]quinolin-2-one]	> 32 µg/mL	> 32 µg/mL	–	–	300 nM	–
O=C(CCCOc1ccc2nc3[nH]c(=O)[nH]c3cc2c1)N1CCCCC1 [Example 24, 1-[4-[(2,3-Dihydro-2-oxo-1H-imidazo[4,5-b]quinolin-7-yl)oxy]-1-oxobutyl]piperidine]	–	0.04 µg/mL (≈ 0.113 µM)	32%	-19%	20 nM	–
O=C(O)CCCCOc1ccc2nc3[nH]c(=O)[nH]c3cc2c1 [Example 8, 5-[(2,3-Dihydro-2-oxo-1H-imidazo[4,5-b]quinolin-7-yl)oxy]pentanoic Acid]	> 32 µg/mL	> 32 µg/mL	–	–	–	–
O=c1[nH]c2cc3cc(OCCCCS(=O)(=O)c4ccccc4)ccc3nc2[nH]1 [Example 35, 7-[4-(Phenylsulfonyl)butoxy]-1,3-dihydro-2H-imidazo[4,5-b]quinolin-2-one]	–	0.07 µg/mL (≈ 0.176 µM)	11 ± 5%	-10 ± 8%	1 nM	ED50 [4]: 4.3 mg/kg
COC(=O)CCCOc1ccc2nc3[nH]c(=O)n(C)c3cc2c1 [Example 11, Methyl 4-[(2,3-Dihydro-1-methyl-2-oxo-1H-imidazo[4,5-b]quinolin-7-yl)oxy]butanoat]	–	–	-10%	-4%	–	ED50 [4]: 15.7 mg/kg
OCCN(CCO)c1nc(N2CCCCC2)c2nc(N(CCO)CCO)nc(N3CCCCC3)c2n1 [dipyridamole, reference compound]	–	> 512 µg/mL	–	–	–	ED50 [4]: > 100 mg/kg
Cn1c(=O)[nH]c2nc3ccc(OCCCC(=O)O)cc3cc21 [Example 6, 4-[(2,3-Dihydro-1-methyl-2-oxo-1H-imidazo[4,5-b]quinolin-7-yl)oxy]butanoic Acid]	> 32 µg/mL	> 32 µg/mL	–	–	600 nM	–
O=C(O)COc1ccc2[nH]c3nc(O)nc-3cc2c1 [Example 7, 2-[(1,3-Dihydro-2-oxo-2H-imidazo[4,5-b]quinolin-7-yl)oxy]acetic Acid]	–	–	–	–	70 nM	–
COC(=O)CCCCOc1ccc2nc3nc(O)n(C)c3cc2c1 [Example 14, Methyl 5-[(2,3-Dihydro-1-methyl-2-oxo 1H-imidazo[4,5-b]quinolin-7-yl)oxy]pentanoate]	–	3 µg/mL (≈ 9.11 µM)	–	–	5000 nM	–
CCN(CC)CCOc1ccc2nc3[nH]c(=O)[nH]c3cc2c1 [Example 34, 7-[(2-Diethylamino)ethoxy]-1,3-dihydro-2H-imidazo[4,5-b]quinolin-2-one]	0.4 µg/mL (≈ 1.33 µM)	1.5 µg/mL (≈ 4.99 µM)	–	–	–	–
Oc1nc2cc3cc(OCCCCc4nnnn4C4CCCCC4)ccc3[nH]c-2n1 [Example 36, 7-[4-(1-Cyclohexyl-1H-tetrazol-5-yl)butoxy]-1,3-dihydro-2H-imidazo[4,5-b]quinolin-2-one]	0.02 µg/mL (≈ 0.0491 µM)	–	–	–	4 nM	–
O=C(CCCOc1ccc2nc3[nH]c(=O)[nH]c3cc2c1)N1CCN(c2ccccc2)CC1 [Example 26, 1-[4-[(2,3-Dihydro-2-oxo-1H-imidazo[4,5-b]quinolin-7-yl)oxy]-1-oxobutyl]-4-phenylpiperazine]	0.009 µg/mL (≈ 0.0209 µM)	0.125 µg/mL (≈ 0.29 µM)	–	–	2 nM	–
CN(C(=O)CCCCOc1ccc2nc3[nH]c(=O)n(C)c3cc2c1)C1CCCCCC1 [Example 28, N-Cycloheptyl-5-[(2,3-dihydro-1-methyl-2-oxo-1H-imidazo[4,5-b]quinolin-7-yl)oxy]-N-methylpentanamide]	–	0.06 µg/mL (≈ 0.141 µM)	27%	-12%	600 nM	–
